This is an account of results in ChEMBL document CHEMBL3804808, “Discovery of a Novel 2,6-Disubstituted Glucosamine Series of Potent and Selective Hexokinase 2 Inhibitors” (ACS Med Chem Lett, 2016).

pIC50, pKi: −log10 of the molar value. A value given as a limit tells only on which side of the number the result lay.

For one assay, the target named is T1, Hexokinase-1 (Homo sapiens, UniProt P19367).
T1 sequence (P19367 whole entry): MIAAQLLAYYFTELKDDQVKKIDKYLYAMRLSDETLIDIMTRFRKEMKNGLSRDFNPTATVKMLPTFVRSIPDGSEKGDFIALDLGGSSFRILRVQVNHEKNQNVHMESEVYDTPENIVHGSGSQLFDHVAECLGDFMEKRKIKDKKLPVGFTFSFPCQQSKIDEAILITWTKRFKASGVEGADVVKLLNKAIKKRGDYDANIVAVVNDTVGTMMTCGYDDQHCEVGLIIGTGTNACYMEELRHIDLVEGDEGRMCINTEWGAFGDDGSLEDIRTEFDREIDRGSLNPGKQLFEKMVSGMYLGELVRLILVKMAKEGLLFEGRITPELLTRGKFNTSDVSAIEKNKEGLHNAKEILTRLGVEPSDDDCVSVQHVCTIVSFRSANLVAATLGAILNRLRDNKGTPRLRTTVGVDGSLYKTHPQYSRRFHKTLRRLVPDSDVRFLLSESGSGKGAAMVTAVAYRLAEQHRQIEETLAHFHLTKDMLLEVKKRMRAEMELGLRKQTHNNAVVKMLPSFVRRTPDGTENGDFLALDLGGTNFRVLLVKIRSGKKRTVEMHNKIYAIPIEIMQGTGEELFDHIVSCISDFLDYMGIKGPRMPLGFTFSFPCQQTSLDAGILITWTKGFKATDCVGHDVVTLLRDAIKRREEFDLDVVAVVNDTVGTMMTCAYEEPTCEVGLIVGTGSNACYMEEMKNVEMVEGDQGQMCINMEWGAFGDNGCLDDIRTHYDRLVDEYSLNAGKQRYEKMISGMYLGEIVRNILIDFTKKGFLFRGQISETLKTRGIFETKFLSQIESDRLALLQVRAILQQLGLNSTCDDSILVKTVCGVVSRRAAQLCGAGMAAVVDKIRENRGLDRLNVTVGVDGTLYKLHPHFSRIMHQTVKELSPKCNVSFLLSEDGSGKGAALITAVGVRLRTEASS
In words: Inhibition of His-tagged human HK1 (11 to 917 residues) expressed in Escherichia coli BL21(DE3) using glucose as substrate after 45 mins by ADP-glo assay in presence of MgATP. On the technique in general: ADP-Glo first removes unused ATP, then detects ADP through luciferase.

Assay [1] deals with T2, Hexokinase-2 (Homo sapiens, UniProt P52789).
T2 sequence (P52789 whole entry): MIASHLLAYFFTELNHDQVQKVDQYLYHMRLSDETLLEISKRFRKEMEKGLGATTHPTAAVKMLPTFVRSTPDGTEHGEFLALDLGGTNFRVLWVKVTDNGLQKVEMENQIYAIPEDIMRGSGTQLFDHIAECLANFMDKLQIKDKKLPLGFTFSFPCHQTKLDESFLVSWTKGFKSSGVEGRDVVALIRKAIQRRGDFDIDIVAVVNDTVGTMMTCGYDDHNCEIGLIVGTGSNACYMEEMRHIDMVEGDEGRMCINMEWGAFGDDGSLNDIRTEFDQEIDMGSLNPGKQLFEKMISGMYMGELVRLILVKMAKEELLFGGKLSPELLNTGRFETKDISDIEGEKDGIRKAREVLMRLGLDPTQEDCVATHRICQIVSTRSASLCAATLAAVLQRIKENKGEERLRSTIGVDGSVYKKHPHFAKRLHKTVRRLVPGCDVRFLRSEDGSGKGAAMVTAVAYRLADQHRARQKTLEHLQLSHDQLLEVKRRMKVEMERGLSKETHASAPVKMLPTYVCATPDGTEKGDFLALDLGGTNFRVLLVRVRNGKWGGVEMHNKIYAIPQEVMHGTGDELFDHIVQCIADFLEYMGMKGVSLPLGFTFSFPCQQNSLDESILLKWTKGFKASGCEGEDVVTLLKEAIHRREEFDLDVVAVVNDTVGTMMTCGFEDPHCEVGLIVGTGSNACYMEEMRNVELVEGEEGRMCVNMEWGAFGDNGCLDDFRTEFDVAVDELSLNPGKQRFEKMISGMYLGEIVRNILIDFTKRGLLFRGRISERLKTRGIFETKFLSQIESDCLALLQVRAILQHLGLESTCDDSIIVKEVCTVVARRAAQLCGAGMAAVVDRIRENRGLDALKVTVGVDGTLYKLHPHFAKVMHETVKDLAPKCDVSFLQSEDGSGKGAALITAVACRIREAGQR
In words: Inhibition of His-tagged human HK2 (17 to 916 residues) expressed in Escherichia coli BL21(DE3) using glucose as substrate after 45 mins by ADP-glo assay in presence of MgATP.

In assay [2] the target is T2, Hexokinase-2. Briefly: Competitive inhibition of His-tagged human HK2 (17 to 916 residues) expressed in Escherichia coli BL21(DE3) assessed as formation of G6P by continuous G6P dehydrogenase coupled assay in presence of glucose.
For assay [3], the target named is T2, Hexokinase-2. Briefly: Inhibition of HK2 in human UM-UC-3 cells using 2FDG as substrate assessed as suppression of G6P production preincubated for 30 mins followed by substrate treatment for 90 mins by resazurin assay. It counts as cell-based, UMUC3. (In general: Resazurin is reduced to fluorescent resorufin, in cell work by metabolically active cells.)
A further assay concerns the target T3, Hexokinase-4 (Homo sapiens, UniProt P35557).
T3 sequence (P35557 whole entry): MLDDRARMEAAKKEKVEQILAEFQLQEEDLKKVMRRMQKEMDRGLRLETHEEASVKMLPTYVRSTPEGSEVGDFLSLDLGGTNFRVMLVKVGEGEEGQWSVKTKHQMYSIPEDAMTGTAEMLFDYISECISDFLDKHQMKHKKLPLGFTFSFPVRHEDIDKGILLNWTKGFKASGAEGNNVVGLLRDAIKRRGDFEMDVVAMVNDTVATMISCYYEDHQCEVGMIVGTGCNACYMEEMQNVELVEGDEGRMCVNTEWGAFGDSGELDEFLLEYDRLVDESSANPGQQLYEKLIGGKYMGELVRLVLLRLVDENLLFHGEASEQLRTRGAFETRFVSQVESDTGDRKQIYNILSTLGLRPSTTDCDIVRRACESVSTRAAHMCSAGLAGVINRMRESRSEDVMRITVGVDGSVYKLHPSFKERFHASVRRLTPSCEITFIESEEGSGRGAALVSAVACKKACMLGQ
In words: Inhibition of HK4 (unknown origin).

`O=S(=O)(N[C@H]1C(O)O[C@H](CNS(=O)(=O)c2cccc(Cl)c2Cl)[C@@H](O)[C@@H]1O)c1ccc(Cl)c(Cl)c1` (stereo not given in full): the pIC50 on Hexokinase-1 is less than 4.70; at Hexokinase-2 [1], 7.30.

For the compound `O=[N+]([O-])c1cccc(S(=O)(=O)N[C@H]2C(O)O[C@H](CNS(=O)(=O)c3cccc(Cl)c3Cl)[C@@H](O)[C@@H]2O)c1` (stereo not given in full), the negative-log IC50 (pIC50) at Hexokinase-1 was 5.00; on Hexokinase-2 [1], 6.89.

Turning to `O=C(N[C@H]1C(O)O[C@H](CO)[C@@H](O)[C@@H]1O)c1cc([N+](=O)[O-])cc([N+](=O)[O-])c1` (stereo not given in full), the negative-log IC50 (pIC50) at Hexokinase-1 and at Hexokinase-2 [1] was 5.70 throughout.

In the case of `O=C(N[C@H]1C(O)O[C@H](CNS(=O)(=O)c2cccc(Cl)c2Cl)[C@@H](O)[C@@H]1O)c1ccc(Cl)s1` (stereo not given in full), the values for the pIC50 on Hexokinase-1 and on Hexokinase-2 [1] were 5.70 and 7.40, respectively.

Turning to `O=C(/C=C/c1ccc(Cl)c(Cl)c1)N[C@H]1C(O)O[C@H](CO)[C@@H](O)[C@@H]1O` (stereo not given in full), the pKi on Hexokinase-2 [2] was 5.54. Also, the negative-log IC50 (pIC50) at Hexokinase-1 is 5.70; on Hexokinase-2 [1], 5.20.

With `N#Cc1ccc(-c2cc(C(=O)N[C@H]3C(O)O[C@H](CO)[C@@H](O)[C@@H]3O)cc(C(F)(F)F)c2)cc1` (stereo not given in full), the pIC50 on Hexokinase-1 was 7.40; on Hexokinase-2 [1], 6.10.

Turning to `O=C(N[C@H]1C(O)O[C@H](CNS(=O)(=O)c2ccccc2Cl)[C@@H](O)[C@@H]1O)c1cccc(-c2ccccc2)c1` (stereo not given in full), the results for the negative logarithm of the IC50 (pIC50) at Hexokinase-1 and on Hexokinase-2 [1] were 7.80 and 7.00, respectively.

In the case of `O=S(=O)(N[C@H]1C(O)O[C@H](CNS(=O)(=O)c2cccc(Cl)c2Cl)[C@@H](O)[C@@H]1O)c1ccc(Cl)s1` (stereo not given in full), the negative logarithm of the IC50 (pIC50) is 6.28 at Hexokinase-2 [3], 4.20 on Hexokinase-1 and 6.89 at Hexokinase-2 [1].

As to `O=S(=O)(N[C@H]1C(O)O[C@H](CNS(=O)(=O)c2cccc(Cl)c2Cl)[C@@H](O)[C@@H]1O)c1cccc(-c2ccc(Cl)cc2)c1` (stereo not given in full), the negative-log IC50 (pIC50) on Hexokinase-1 was 6.00; at Hexokinase-2 [1] it was 8.10.

Turning to `O=C(O)c1cccc(S(=O)(=O)NC[C@H]2OC(O)[C@H](NC(=O)c3cccc(-c4ccccc4)c3)[C@@H](O)[C@@H]2O)c1` (stereo not given in full), the pIC50 is 7.60 at Hexokinase-1 and 7.30 at Hexokinase-2 [1].

Turning to `COC(=O)c1cc(S(=O)(=O)NC[C@H]2OC(O)[C@H](NC(=O)c3cccc(Br)c3)[C@@H](O)[C@@H]2O)oc1C` (stereo not given in full), the pIC50 on Hexokinase-1 was 5.80; at Hexokinase-2 [1], 6.20.

As for `Cc1ccc(S(=O)(=O)NC[C@H]2OC(O)[C@H](NC(=O)/C=C/c3ccc(Cl)c(Cl)c3)[C@@H](O)[C@@H]2O)cc1` (stereo not given in full), the pIC50 at Hexokinase-1 and at Hexokinase-2 [1] was 5.70 throughout.

With `O=C(C=C1CCC(C(F)(F)F)CC1)N[C@H]1C(O)O[C@H](CO)[C@@H](O)[C@@H]1O` (stereo not given in full), the figures for the pIC50 on Hexokinase-1 and on Hexokinase-2 [1] were 3.80 and 4.80, respectively.

Consider `O=C(N[C@H]1C(O)O[C@H](CNS(=O)(=O)c2cnccc2Cl)[C@@H](O)[C@@H]1O)c1cccc(-c2ccccc2)c1` (stereo not given in full), for which the pIC50 at Hexokinase-1 was 7.70; at Hexokinase-2 [1] it was 7.00.

In the case of `COC1O[C@H](CO)[C@@H](O)[C@H](O)[C@H]1NC(=O)/C=C/c1ccc(Cl)c(Cl)c1` (stereo not given in full), the pIC50 on Hexokinase-1 was less than 3.70; at Hexokinase-2 [1], less than 3.40.

For `COc1cc(C(=O)N[C@H]2C(O)O[C@H](CNS(=O)(=O)c3cccc(Cl)c3Cl)[C@@H](O)[C@@H]2O)cc(-c2ccc(C#N)cc2)c1` (stereo not given in full), the pIC50 at Hexokinase-1 was 8.10; on Hexokinase-2 [1], 7.60.

Take `O=C(N[C@H]1C(O)O[C@H](CNS(=O)(=O)c2cccc(Cl)c2Cl)[C@@H](O)[C@@H]1O)c1cccc(-c2ccccc2)c1` (stereo not given in full): the pIC50 was 5.46 at Hexokinase-4, 6.70 at Hexokinase-2 [3], 7.49 on Hexokinase-1 and 7.60 at Hexokinase-2 [1].

On to `Cc1oc(S(=O)(=O)NC[C@H]2OC(O)[C@H](NC(=O)c3cccc(Br)c3)[C@@H](O)[C@@H]2O)cc1C(=O)O` (stereo not given in full), for which the results for the negative logarithm of the IC50 (pIC50) on Hexokinase-1 and on Hexokinase-2 [1] were 7.70 and 8.00, respectively.

Regarding `O=C(N[C@H]1C(O)O[C@H](CO)[C@@H](O)[C@@H]1O)c1ccc(-c2ccccc2)cc1` (stereo not given in full), the pIC50 is 4.89 at Hexokinase-1 and 4.80 on Hexokinase-2 [1].

For `O=C(N[C@H]1C(O)O[C@H](CO)[C@@H](O)[C@@H]1O)c1cccc(-c2ccccc2)c1` (stereo not given in full), the results for the pIC50 on Hexokinase-1 and on Hexokinase-2 [1] were 6.10 and 5.49, respectively.

In the case of `N#Cc1ccc(S(=O)(=O)NC[C@H]2OC(O)[C@H](NC(=O)c3cccc(-c4ccccc4)c3)[C@@H](O)[C@@H]2O)cc1` (stereo not given in full), the figures for the pIC50 at Hexokinase-1 and on Hexokinase-2 [1] were 8.10 and 6.89, respectively.

For the compound `O=C(N[C@H]1C(O)O[C@H](CNS(=O)(=O)c2cccc(Cl)c2)[C@@H](O)[C@@H]1O)c1cccc(-c2ccccc2)c1` (stereo not given in full), the figures for the pIC50 on Hexokinase-1 and on Hexokinase-2 [1] were 6.80 and 6.49, respectively.

As to `O=C(/C=C/c1ccc(Cl)c(Cl)c1)N[C@H]1CO[C@H](CO)[C@@H](O)[C@@H]1O`, the pIC50 on Hexokinase-1 is less than 3.70; on Hexokinase-2 [1], less than 3.40.

On to `O=C(N[C@H]1C(O)O[C@H](CNS(=O)(=O)c2ccccc2)[C@@H](O)[C@@H]1O)c1cccc(-c2ccccc2)c1` (stereo not given in full), for which the pIC50 at Hexokinase-1 is 6.80; at Hexokinase-2 [1], 6.10.

For `O=S(=O)(N[C@H]1C(O)O[C@H](CNS(=O)(=O)c2cccc(Cl)c2Cl)[C@@H](O)[C@@H]1O)c1cccc(-c2ccccc2)c1` (stereo not given in full), the figures for the negative-log IC50 (pIC50) on Hexokinase-2 [3], on Hexokinase-1 and at Hexokinase-2 [1] were 6.33, 5.30 and 7.60, respectively.

The pIC50 is the IC50 on a negative log10 scale, so that one unit is a factor of ten. What is called pKi is the negative decadic logarithm of the Ki, by convention in mol/L.
